# Experimental data taken from ChEMBL document CHEMBL1201862, “PubChem BioAssay data set” (2004).
#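 Results reflect a 48-hour exposure of cells in 96-well plates to compound at five concentrations. GI50 = concentration required for 50% inhibition of growth.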 Activity calls are given as the source filed them. Rule as the data show it: active = GI50 up to about 1.1 µM and inactive = higher.
# Assays:
# Assay in all cases: DTP human tumour cell line panel, 48 h
# [1] = tested on: 786-0
# [2] = tested on: NCI/ADR-RES
# [3] = tested on: CAKI-1
# [4] = tested on: K562
# [5] = tested on: Malme-3M
# [6] = tested on: MCF7
# [7] = tested on: A498
# [8] = tested on: CCRF-CEM
# [9] = tested on: UACC-62
# [10] = tested on: MOLT-4
# [11] = tested on: EKVX
# [12] = tested on: T47D
# [13] = tested on: HOP-62
# [14] = tested on: HCC 2998
# [15] = tested on: MDA-MB-231
# [16] = tested on: SK-MEL-5
# [17] = tested on: NCI-H522
# [18] = tested on: SNB-75
# [19] = tested on: SW-620
# [20] = tested on: SN12C
# [21] = tested on: TK-10
# [22] = tested on: RXF 393
# [23] = tested on: SR
# [24] = tested on: NCI-H23
# [25] = tested on: OVCAR-4
# [26] = tested on: HOP-92
# [27] = tested on: SK-OV-3
# [28] = tested on: HCT-116
# [29] = tested on: RPMI-8226
# [30] = tested on: NCI-H460
# [31] = tested on: COLO 205
# [32] = tested on: Hs-578T
# [33] = tested on: MDA-N
# [34] = tested on: DU-145
# [35] = tested on: BT-549
# [36] = tested on: UO-31
# [37] = tested on: MDA-MB-435
# [38] = tested on: SF-295
# [39] = tested on: PC-3
# [40] = tested on: UACC-257
# [41] = tested on: M14
# [42] = tested on: OVCAR-3
# [43] = tested on: OVCAR-8
# [44] = tested on: ACHN
# [45] = tested on: SNB-19
# [46] = tested on: A549
# [47] = tested on: U-251
# [48] = tested on: HT-29
# [49] = tested on: KM12
# [50] = tested on: LOX IMVI
# [51] = tested on: SK-MEL-28
# [52] = tested on: IGROV-1
# [53] = tested on: SK-MEL-2
# [54] = tested on: NCI-H226
# [55] = tested on: HL-60
# [56] = tested on: SF-539
# [57] = tested on: OVCAR-5
# [58] = tested on: SF-268
# [59] = tested on: HCT-15
smiles,measurement,setting,value
CCOC(=O)C(NC(=O)c1ccccc1)(Nc1ccc(Cl)cc1C(F)(F)F)C(F)(F)F (configuration not stated),GI50,[1],8.95 µM (inactive)
same,GI50,[2],2.76 µM (inactive)
same,GI50,[3],7.5 µM (inactive)
same,GI50,[4],2.47 µM (inactive)
same,GI50,[5],3.37 µM (inactive)
same,GI50,[6],4.83 µM (inactive)
same,GI50,[7],6.05 µM (inactive)
same,GI50,[8],1.7 µM (inactive)
same,GI50,[9],5.3 µM (inactive)
same,GI50,[10],2.55 µM (inactive)
same,GI50,[11],5.6 µM (inactive)
same,GI50,[12],4.39 µM (inactive)
same,GI50,[13],3.91 µM (inactive)
same,GI50,[14],> 28.3 µM (inactive)
same,GI50,[15],6.31 µM (inactive)
same,GI50,[16],4.91 µM (inactive)
same,GI50,[17],2.59 µM (inactive)
same,GI50,[18],2.29 µM (inactive)
same,GI50,[19],2.88 µM (inactive)
same,GI50,[20],4.45 µM (inactive)
same,GI50,[21],8.26 µM (inactive)
same,GI50,[22],3.44 µM (inactive)
same,GI50,[23],2.28 µM (inactive)
same,GI50,[24],4.59 µM (inactive)
same,GI50,[25],9.77 µM (inactive)
same,GI50,[26],4.99 µM (inactive)
same,GI50,[27],9.4 µM (inactive)
same,GI50,[28],3.78 µM (inactive)
same,GI50,[29],2.96 µM (inactive)
same,GI50,[30],> 20.5 µM (inactive)
same,GI50,[31],4.58 µM (inactive)
same,GI50,[32],39.3 µM (inactive)
same,GI50,[33],1.51 µM (inactive)
same,GI50,[34],12.9 µM (inactive)
same,GI50,[35],6.37 µM (inactive)
same,GI50,[36],5.21 µM (inactive)
same,GI50,[37],1.26 µM (inactive)
same,GI50,[38],4.03 µM (inactive)
same,GI50,[39],3.13 µM (inactive)
same,GI50,[40],9.64 µM (inactive)
same,GI50,[41],4.13 µM (inactive)
same,GI50,[42],3.57 µM (inactive)
same,GI50,[43],5.36 µM (inactive)
same,GI50,[44],9.42 µM (inactive)
same,GI50,[45],5.48 µM (inactive)
same,GI50,[46],4.59 µM (inactive)
same,GI50,[47],3.74 µM (inactive)
same,GI50,[48],2.15 µM (inactive)
same,GI50,[49],1.42 µM (inactive)
same,GI50,[50],5.33 µM (inactive)
same,GI50,[51],6.97 µM (inactive)
same,GI50,[52],4.03 µM (inactive)
same,GI50,[53],4.74 µM (inactive)
same,GI50,[54],16.7 µM (inactive)
same,GI50,[55],1.98 µM (inactive)
same,GI50,[56],5.71 µM (inactive)
same,GI50,[57],13.5 µM (inactive)
same,GI50,[58],> 37.4 µM (inactive)
CCC1CCC2C3CC=C4CC(OC(C)=O)C(N)CC4(C)C3CCC12C (configuration not stated),GI50,[1],2.02 µM (inactive)
same,GI50,[2],5.21 µM (inactive)
same,GI50,[3],8.55 µM (inactive)
same,GI50,[4],2.05 µM (inactive)
same,GI50,[5],3.49 µM (inactive)
same,GI50,[6],6.41 µM (inactive)
same,GI50,[7],5.25 µM (inactive)
same,GI50,[8],2.47 µM (inactive)
same,GI50,[9],4.89 µM (inactive)
same,GI50,[10],2.37 µM (inactive)
same,GI50,[11],4.62 µM (inactive)
same,GI50,[12],5.78 µM (inactive)
same,GI50,[13],2.08 µM (inactive)
same,GI50,[59],3.3 µM
same,GI50,[14],1.59 µM (inactive)
same,GI50,[15],1.95 µM (inactive)
same,GI50,[16],1.82 µM (inactive)
same,GI50,[17],2.51 µM (inactive)
same,GI50,[18],1.89 µM (inactive)
same,GI50,[19],3.21 µM (inactive)
same,GI50,[20],5.3 µM (inactive)
same,GI50,[21],2.66 µM (inactive)
same,GI50,[22],1.85 µM (inactive)
same,GI50,[23],2.25 µM (inactive)
same,GI50,[24],6 µM (inactive)
same,GI50,[25],4.94 µM (inactive)
same,GI50,[26],5.02 µM (inactive)
same,GI50,[27],9.53 µM (inactive)
same,GI50,[28],2.46 µM (inactive)
same,GI50,[29],2.69 µM (inactive)
same,GI50,[30],1.87 µM (inactive)
same,GI50,[31],5.18 µM (inactive)
same,GI50,[32],1.93 µM (inactive)
same,GI50,[33],2.7 µM (inactive)
same,GI50,[34],2.92 µM (inactive)
same,GI50,[35],4.93 µM (inactive)
same,GI50,[36],5.24 µM (inactive)
same,GI50,[37],2.35 µM (inactive)
same,GI50,[38],3.26 µM (inactive)
same,GI50,[39],2.71 µM (inactive)
same,GI50,[40],2.17 µM (inactive)
same,GI50,[41],1.82 µM (inactive)
same,GI50,[42],5.85 µM (inactive)
same,GI50,[43],2.05 µM (inactive)
same,GI50,[44],7.89 µM (inactive)
same,GI50,[45],2.51 µM (inactive)
same,GI50,[46],2.07 µM (inactive)
same,GI50,[47],1.86 µM (inactive)
same,GI50,[48],2.36 µM (inactive)
same,GI50,[49],2.96 µM (inactive)
same,GI50,[50],1.8 µM (inactive)
same,GI50,[51],3.66 µM (inactive)
same,GI50,[52],6.4 µM (inactive)
same,GI50,[53],3.97 µM (inactive)
same,GI50,[54],20.2 µM (inactive)
same,GI50,[55],2 µM (inactive)
same,GI50,[56],1.86 µM (inactive)
same,GI50,[57],6.21 µM (inactive)
same,GI50,[58],2.71 µM (inactive)
